This passage reports IC50 results from US10450297B2, “Sulfonyl amide derivatives for the treatment of abnormal cell growth” (Pfizer, Inc., priority 2007, dated 2019).

pIC50: −log10 of the molar value. Structures can show the parent of a compound that is named as a salt.

The term pIC50 denotes the negative decadic logarithm of the IC50, by convention in mol/L. Low values mean a large IC50, high ones a small IC50.

Chain of FAK kinase (catalytic construct FAK(410-689)) (Q05397 410-689): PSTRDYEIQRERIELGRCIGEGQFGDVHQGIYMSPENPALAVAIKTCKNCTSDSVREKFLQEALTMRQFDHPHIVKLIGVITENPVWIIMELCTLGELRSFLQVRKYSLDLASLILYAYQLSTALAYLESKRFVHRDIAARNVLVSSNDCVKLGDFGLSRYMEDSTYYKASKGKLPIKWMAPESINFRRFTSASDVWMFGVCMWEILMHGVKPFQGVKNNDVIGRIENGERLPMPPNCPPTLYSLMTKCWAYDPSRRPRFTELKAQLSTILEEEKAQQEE

The test deals with FAK kinase (catalytic construct FAK(410-689)) (Homo sapiens (Human), UniProt Q05397). Kind of test: FAKcd kinase ELISA (inhibition of poly-glu-tyr phosphorylation by FAK(410-689)). Format: biochemical. As to conditions: 50 μM final ATP. How it is done:
A. In-Vitro Activity of FAK:
The assay protocol has three parts:
3. […] 4. […] 5. […] 6. […] 7. […] 9. […] 10. […] 12. […] 13. […] 14. Aliquot the FAKcd protein and store frozen at −80° C. II. FAK Activation 1. […] At t120 (t=120 minutes), add 10 μl of 150 mM ATP. […] Add 180 μl aliquots of the desalted material to NiNTA spin column and incubate on spin column 4. […] FAKcd Kinase ELISA 1. Coat 96-well Nunc MaxiSorp plates with poly-glu-tyr (pGT) at […]: Prepare 10 μg/ml of pGT in PBS and aliquot 100 μl/well. Incubate the plates at 37° C. overnight, aspirate the supernatant, wash the plates 3 times with Wash Buffer, and flick to dry before storing at 4° C. 2. Prepare compound stock solutions of 2.5 mM in 100% DMSO. The stocks are subsequently diluted to 60× of the final concentration in 100% DMSO, and diluted 1:5 in Kinase Phosphorylation Buffer. 3. […] Add 80 μl to each well for a final ATP concentration of 50 μM. 4. […] 5. Dilute on ice, FAKcd protein to 1:1000 in Kinase Phosphorylation Buffer. Dispense 30 μl per well. 6. Note: Linearity and the appropriate dilution must be pre-determined for each batch of protein. The enzyme concentration selected should be such that quantitation of the assay signal will be approximately 0.8-1.0 at OD450, and in the linear range of the reaction rate. 7. Prepare both a No ATP control (noise) and a No Compound Control (Signal): 8. (Noise) One blank row of wells receives 10 μl of 1:5 diluted compounds in DMSO, 80 μl of Phosphorylation buffer (minus ATP), and 30 μl FAKcd solution. 9. […] 10. Incubate reaction at room temperature for 15 minutes with gentle shaking on a plate shaker. 11. Terminate the reaction by aspirating off the reaction mixture and washing 3 times with wash buffer. 12. Dilute phospho-tyrosine HRP-conjugated (pY20HRP) antibody to 0.250 μg/ml (1:1000 of Stock) in blocking buffer. Dispense 100 μl per well, and incubate with shaking for 30 minutes at 25°. 13. Aspirate the supernatant and wash the plate 3 times with wash buffer. 14. Add 100 μl per well of room temperature TMB solution to initiate color development. Color development is terminated after approximately 15-30 sec. by the addition of 100 μl of 0.09M H2SO4 per well. 15. The signal is quantitated by measurement of absorbance at 450 nm on the BioRad ricroplate reader or a microplate reader capable of reading at OD450. 16. Inhibition of tyrosine kinase activity would result in a reduced absorbance signal. […] The values are reported as IC50s, μM concentration. FAK Inducible cell-based ELISA: Final Protocol Materials: […]
Compound `CN(c1ncccc1CNc1nc(Nc2ccc(CNC(N)=O)cc2)ncc1C(F)(F)F)S(C)(=O)=O` [Compound 216, N-{3-[({2-[(4-{[(aminocarbonyl)amino]-methyl}phenyl)amino]-5-(trifluoromethyl)pyrimidin-4-yl}amino)methyl]pyridin-2-yl}-N-methylmethane-sulfonamide] showed a negative-log IC50 (pIC50) of 9.22.
Then `CN(c1ncccc1CNc1nc(Nc2ccc(C(N)=O)c(F)c2)ncc1C(F)(F)F)S(C)(=O)=O` [Example 13, 2-fluoro-4-({4-[({2-[methyl(methylsulfonyl)amino]pyridin-3-yl}methyl)amino]-5-(trifluoromethyl)pyrimidin-2-yl}amino)benzamide formic acid salt], with > 9.23; and `CC(=O)Nc1cccc(Nc2ncc(C(F)(F)F)c(NCc3nccnc3N(C)S(C)(=O)=O)n2)c1` [Compound 385, N-[3-({4-[({3-[methyl(methylsulfonyl)amino]pyrazin-2-yl}methyl)amino]-5-(trifluoromethyl)pyrimidin-2-yl}amino)phenyl]acetamide], with 8.84; and `CCC[C@H](CO)NC(=O)c1ccc(Nc2ncc(C(F)(F)F)c(NCc3cccnc3N(C)S(C)(=O)=O)n2)cc1` [Compound 257, N-[(1R)-1-(hydroxymethyl)butyl]-4-({4-[({2-[methyl(methylsulfonyl)amino]pyridin-3-yl}methyl)amino]-5-(trifluoromethyl)pyrimidin-2-yl}amino)benzamide], with 8.24.
Turning to `CN(c1cccc(CNc2nc(Nc3ccc(S(N)(=O)=O)cc3)ncc2Br)c1)S(C)(=O)=O` [Compound 34, 4-{[5-bromo-4-({3-[methyl(methylsulfonyl)amino]benzyl}amino)pyrimidin-2-yl)amino}benzenesulfonamide], the negative logarithm of the IC50 (pIC50) is 7.81. This pIC50 is 0.43 log units lower than that of the compound before.
Then `CN(c1cccnc1CNc1nc(Nc2ccc(C(N)=O)nc2)ncc1C(F)(F)F)S(C)(=O)=O` [Compound 377, 5-({4-[({3-[methyl(methylsulfonyl)amino]pyridin-2-yl}methyl)amino]-5-(trifluoromethyl)pyrimidin-2-yl}amino)pyridine-2-carboxamide], with 7.82; and `CN(c1ncccc1CNc1nc(Nc2ccc(C(F)(F)F)nc2)ncc1C(F)(F)F)S(C)(=O)=O` [Compound 81, N-methyl-N-[3-({[5-(trifluoromethyl)-2-{[6-(trifluoromethyl)pyridin-3-yl]amino}pyrimidin-4-yl]amino}methyl)pyridin-2-yl]methanesulfonamide], with 7.80; and `CN(c1ncccc1CNc1nc(Nc2ccc(C(N)=O)c(O)c2)ncc1C(F)(F)F)S(C)(=O)=O` [Compound 394, 2-hydroxy-4-({4-[({2-[methyl(methylsulfonyl)amino)pyridin-3-yl}methyl)amino]-5-(trifluoromethyl)pyrimidin-2-yl}amino)benzamide], with > 9.23.
In turn, `CC(C)[C@@H](CO)NC(=O)c1cccc(Nc2ncc(C(F)(F)F)c(NCc3cccnc3N(C)S(C)(=O)=O)n2)c1` [Compound 179, N-[(1S)-1-(hydroxymethyl)-2-methylpropyl]-3-({4-[({2-[methyl(methylsulfonyl)amino]pyridin-3-yl}methyl)amino]-5-(trifluoromethyl)pyrimidin-2-yl}amino)benzamide] showed a pIC50 of 8.96.
Then `Cc1ccc(CNc2nc(Nc3ccccc3)ncc2C(F)(F)F)c(N(C)S(C)(=O)=O)n1` [Compound 51, N-[3-({[2-anilino-5-(trifluoromethyl)pyrimidin-4-yl]amino}methyl)-6-methylpyridin-2-yl]-N-methylmethanesulfonamide], with 9.23; and `Cc1ccc(N(C)S(C)(=O)=O)cc1CNc1nc(Nc2ccccc2)ncc1C(F)(F)F` [Compound 63, N-[3-({[2-anilino-5-(trifluoromethyl)pyrimidin-4-yl]amino}methyl)-4-methylphenyl]-N-methylmethanesulfonamide], with 9.22.
Then `CN(c1ncccc1CNc1nc(Nc2ccc(CC(=O)O)cc2)ncc1C(F)(F)F)S(C)(=O)=O` [Compound 105, [4-({4-[({2-[methyl(methylsulfonyl)amino]pyridin-3-yl}methyl)amino]-5-(trifluoromethyl)pyrimidin-2-yl}arnino)phenyl]acetic acid], with 9.03; and `Cc1ccc(C(N)=O)cc1Nc1ncc(C(F)(F)F)c(NCc2nccnc2N(C)S(C)(=O)=O)n1` [Compound 309, 4-methyl-3-({4-[({3-[methyl(methylsulfonyl)amino]pyrazin-2-yl}methyl)amino]-5-(trifluoromethyl)pyrimidin-2-yl}amino)benzamide], with 8.45; and `CC1CCN(C(=O)c2cccc(Nc3ncc(C(F)(F)F)c(NCc4cccnc4N(C)S(C)(=O)=O)n3)c2)CC1` [Compound 197, N-methyl-N-[3-({[2-({3-[(4-methylpiperidin-1-yl)carbonyl]phenyl}amino)-5-(trifluoromethyl)pyrimidin-4-yl]amino}methyl)pyridin-2-yl]methanesulfonamide], with 8.35.
In turn, `Cc1cc(Nc2ncc(C(F)(F)F)c(NCc3cccnc3N(C)S(C)(=O)=O)n2)ccn1` [Compound 221, N-methyl-N-{3-[({2-[(2-methylpyridin-4-yl)amino]-5-(trifluoromethyl)pyrimidin-4-yl}amino)methyl]pyridin-2-yl}methanesulfonamide] gave a negative logarithm of the IC50 (pIC50) of 6.73. Compared with the last compound, the pIC50 is 1.62 log units lower.
As to `COc1cc(C(N)=O)ccc1Nc1ncc(C(F)(F)F)c(NCc2cccnc2N(C)S(C)(=O)=O)n1` [Compound 48, 3-methoxy-4-({4-[({2-[methyl(methylsuffonyl)amino]pyridin-3-yl}methyl)amino]-5-(trifluoromethyl)pyrimidin-2-yl}amino)benzamide], the pIC50 is 9.23.
Consider `CN(c1ncccc1CNc1nc(Nc2cccc(C(=O)NCc3ccccc3)c2)ncc1C(F)(F)F)S(C)(=O)=O` [Compound 191, N-benzyl-3-({4-[({2-[methyl(methylsulfonyl)amino]pyridin-3-yl}methyl)amino]-5-(trifluoromethyl)pyrimidin-2-yl}amino)benzamide], for which the pIC50 is 8.26.
The same measure for `Cc1cc(C(N)=O)ccc1Nc1ncc(C(F)(F)F)c(NCc2nccnc2N(C)S(C)(=O)=O)n1` [Compound 345, 3-methyl-4-({4-[({3-[methyl(methylsulfonyl)amino]pyrazin-2-yl}methyl)amino]-5-(trifluoromethyl)pyrimidin-2-yl}amino)benzamide]: 9.01.
On to `Cc1cc(Nc2ncc(C(F)(F)F)c(NCc3cc(N(C)S(C)(=O)=O)ccn3)n2)ccc1C(N)=O` [Compound 406, 2-methyl-4-({4-[({4-[methyl(methylsulfonyl)amino]pyridin-2-yl}methyl)amino]-5-(trifluoromethyl)pyrimidin-2-yl}amino)benzamide], for which the pIC50 is 9.11.
On to `CN(c1ncccc1CNc1nc(Nc2ccc(C(O)CO)cc2)ncc1C(F)(F)F)S(C)(=O)=O` (stereo not drawn) [Compound 412, N-[3-({[2-{[4-(1,2-dihydroxyethyl)phenyl]amino}-5-(trifluoromethyl)pyrimidin-4-yl]amino}methyl)pyridin-2-yl]-N-methylmethane-sulfonamide], for which the negative-log IC50 (pIC50) is > 9.23.
The same measure for `Cc1cc(C(N)=O)ccc1Nc1ncc(C(F)(F)F)c(NCc2cccc(N(C)S(C)(=O)=O)c2)n1` [Compound 346, 3-methyl-4-{[4-({3-[methyl(methylsulfonyl)amino]benzyl}amino)-5-(trifluoromethyl)pyrimidin-2-yl]amino}benzamide]: 9.05.
